Laboratory results published in patent publication US20160151403A1, “SMALL MOLECULE MODULATORS OF P53 FAMILY SIGNALING” (The Trustees of the University of Pennsylvania, priority 2006, published 2016).
Entries after “also recorded” stand apart in the source; their conditions may differ.

Columns and labels:
[1] = tested on: DR5 and p21 in HCT116/p53(+/+) cells; experiment: Western blot of p53 target genes DR5 and p21 in HCT116/p53(+/+) cells; format: cell-based, human; settings: for expression of p53 targets DR5 and p21 proteins: parental HCT116 (p53+/+) cells, FIG. 2A
Experimental: (§1) FIGS. 2A-2B show protein levels of p53 target genes p21 and DR5 were induced by selected compounds in HCT/p53(+/+) cells (A) or HCT/p53(−/−) cells (B). In A, doses of compounds (μM) are listed above each lane. Cells treated with compounds were harvested and lysed for SDS-PAGE and immunoblotted with p21 or DR5 antibodies. Ran was used as a protein loading control. Doses of compounds in B were as follows: 2 μM for #15, 12 μM for #1 and #23, 20 μM for #20 and #32, 100 μM for #33, 200 μM for #5, #8, #12, #16, #17, and #22, and 400 μM for #3. The dose for adriamycin was 0.2 μg/ml. Cells were incubated for 16 hours at 37° C. with the various drugs prior to cell harvest;
(§2) Cells were collected and protein concentration was quantified by the Bio-Rad protein assay prior to SDS-PAGE. Proteins were transferred to a PVDF membrane (Immobilon-P, Millipore Corporation, Bedford, Mass.) by a semi-dry transfer apparatus (Bio-Rad Laboratories, Hercules, Calif.). The membranes with transferred proteins were blotted with 10% W/V non-fat dry milk and then incubated with the primary antibody and subsequently secondary antibodies, which were labelled by horseradish peroxidase, or infrared dyes (IR). Signals were visualized by either ECL (Amersham Pharmacia Biotech, England, UK) and exposed to an X-ray film, or scanned by the Odyssey Infared Imaging System (LI-COR Biosciences, Lincoln, Nebr.). Anti-p53, DO-1, was from Santa Cruz biotechnology, Inc. (Santa Cruz, Calif.), anti-p73 (AB-1) and anti-p21 (AB-1) were obtained from Calbiochem (San Diego, Calif.). Anti-ser20 of p53 Cell were obtained from Signaling Technology (Danvers, Mass.) and anti-DR5 antibody was obtained from Cayman Chemical (Ann Arbor, Mich.).
(§3) The chemical library screening was directed at restoring “p53 responses” in p53-deficient cells. The small molecules identified by the cell-based screening procedure appeared to be able to restore p53 responses in p53-deficient colon tumors and to eliminate viable cells. Their function was further tested on wild-type p53-expressing and p53-knockout HCT116 colon adenocarcinoma cell lines. A number of candidate modulators of signaling by the p53 family appeared to induce expression of p53 target genes such as p21 or DR5(13) either with or without stabilizing p53 protein in HCT116 cells (FIG. 2A).

[2] = tested on: p53 protein expression in HCT116 cells; experiment: Western blot of p53 protein in parental HCT116 cells; format: cell-based, human; settings: FIG. 2A
Experimental: as §2, §3

[3] = tested on: DR5 and p21 in HCT116/p53(−/−) cells; experiment: Western blot of p53 target genes DR5 and p21 in HCT116/p53(-/-) cells; format: cell-based, human; settings: for DR5 and p21 expression (p53 target genes): p53-null HCT116 cells, 16 hours, doses per compound in FIG. 2B
Experimental: as §1, §2
A number of selected compounds was further tested on HCT116/p53^−/− cells to verify the possibility of induction of p53 target gene expression in the absence of p53. […] The importance of this observation is in establishing that it is possible to identify small molecules with the potential to induce p53 target gene expression in p53-deficient cells.

[4] = tested on: p73 in HCT116/p53(−/−) cells; experiment: Western blot of p73 protein in HCT116/p53(-/-) cells; format: cell-based, human; settings: FIG. 3F
Experimental: (§4) FIGS. 3A-3F show: Structures (A) of isolated compounds and summary of their effects on the p53 family and transcriptional targets (B). Cell cycle profiles of HCT/p53(+/+) and HCT/p53(−/−) in response to treatment by selected compounds (C-E). The dose of #17 was 200 μM and for #23 it was 10 μM. F, p73 protein levels were elevated in HCT116/p53(−/−) cells in response to treatment by selected compounds at various concentrations as indicated;
as §2
The questioned whether the p53 family member p73 is involved in the p53-responsive transcriptional activity induced by the compounds identified was then tested. p63, the other p53 family member, was not tested, because the TA form of p63 is rarely expressed in malignant and normal tissues except for germ cells of the ovary and testis.

[5] = Toxicity in xenograft-bearing mice; format: in vivo; settings: at higher doses (above MTD)
Experimental: (§5) Compounds #1, #14, #17, and #23 were tested in colon-tumor xenograft-bearing mice in order to evaluate their toxicities and potential anti-tumor effects (FIG. 4). […] The initial doses were chosen below maximal tolerated doses based on the NCI DTP toxicology databases for chemical compound testing in vivo so that mice would survive drug administration and allow subsequent evaluation of anti-tumor effects. p53-null HCT116 xenografts were first tested to document anti-tumor effects in p53-deficient tumors and an experiment to simulate therapy of established tumors was designed. A total of 2×10^6 p53-null HCT116 cells were implanted on opposite flanks subcutaneously in each of 6 nude mice in each group. When tumor masses grew to about 3-5 mm in diameter, drugs were administered intra-peritoneally (#1: 100 mg/kg; #14: 50 mg/kg; #23: 10 mg/kg), and on the next day additional groups received intravenous TRAIL (15) (100 μg/mice via the tail vein). Tumor weights were determined at 7 days later. […] Nonetheless in the future it may be possible to modify the structure of #17 or identify doses where synergistic interactions with TRAIL may be observed.

HCT116/p53^−/− cells = experiment: Flow cytometry cell cycle profile, HCT116/p53(-/-); format: cell-based, human
Experimental: as §4
(§6) Adherent cells in a 6-well plate were trypsinized and collected in 15 ml centrifuge tubes to which were added the originally floating cells. The collected cells were ethanol-fixed and stained with propidium iodide (Sigma, St. Louis, Mo.). The DNA content of the stained cells was then measured using an Epics Elite flow cytometer (Beckman-Coulter, Fullerton, Calif.).
(§7) The ability of selected compounds from the chemical library screen to induce apoptosis of human colon tumor cells and the dependence of their effects on endogenous p53 status was further evaluated.

[6] = tested on: HCT116/p53(−/−)/PG13 cells; experiment: p53 transcriptional activity, PG13 reporter, HCT116/p53(-/-)/PG13 cells; format: cell-based, human; settings: p53-null HCT116, 16 h, bioluminescence
Experimental: (§8) Cells were treated by the indicated compounds at progressive 1:2 serial dilutions for 16 h, and the luciferase activities were detected by bioluminescence imaging. Fold induction was calculated by comparing to the nontreated cells;

γH2AX = γH2AX test (DNA damage signaling); format: cell-based; settings: after treatment
HCT116/p53^+/+ cells = experiment: Flow cytometry cell cycle profile, HCT116/p53(+/+); format: cell-based, human; settings: #17 200 μM, #23 10 μM
Experimental: as §4, §6, §7

[7] = tested on: HCT116/p53(−/−) xenografts; experiment: In vivo anti-tumor assay, HCT116/p53(-/-) xenografts in Balb/c nude mice; settings: doses just below the MTD
Experimental: Balb/c nude mice were inoculated subcutaneously with 2 million HCT116/p53(−/−) cells in Matrigel on each flank. 6 mice were used in each group, in each of the two experiments. When the tumor mass reached about 3-5 mm, mice were treated with the compounds alone or following a single dose of TRAIL at 100 μg/mouse in experiment 1. At 7 days after treatment, mice were sacrificed and the tumor masses were weighted. The doses used were 100 mg/kg for #1, 50 mg/kg for #14, and 10 mg/kg for #23;
Balb/c nude mice (Charles River Laboratories, Wilmington, Mass.) were inoculated subcutaneously with 2 million HCT116/p53(−/−) cells in an equal volume of Matrigel. When tumor masses reached about 3-5 mm in diameter, mice were treated with the compounds alone by intraperitoneal injection or following a single intravenous dose of TRAIL at 100 μg/mouse. At 7 days after treatment, mice were sacrificed and the tumor masses were weighed. DLD1/PG13 cells were inoculated subcutaneously with 5 million cells. At 24 hours later mice were treated with selected compounds, and subsequently bioluminescence imaging was carried out after 16 hours as previously described [Wang, W. & El-Deiry, W. S. (2003) Cancer Biol Ther 2, 196-202].
as §5

[8] = tested on: HCT116/p53(+/+)/PG-13 cells; experiment: p53 transcriptional activity, PG13 reporter, HCT116/p53(+/+)/PG-13 cells; format: cell-based, human; settings: 16 h, bioluminescence
Experimental: as §8

SMILES	expression of p53 targets DR5 and p21 proteins [1]	p53 protein expression [2]	DR5 and p21 expression (p53 target genes) [3]	p73 protein expression [4]	other results
Cc1ccc(CCCC(=O)O)cc1C [#3]	increase p53 target gene expression	slight or no significant effect			
O=C(O)/C=C\C(=O)Nc1ccc2c(c1)-c1ccccc1C2 [#5]	increase p53 target gene expression	slight or no significant effect			
O=C(O)CCC(=O)c1ccc2sc3ccccc3c2c1 [#8]			increase DR5 and p21 expression	induce p73 protein expression	
COC1=C(C)C(=O)c2c(c(COC(N)=O)c3n2CC2C3N2C)C1=O (stereo not shown) [#11]	more modest	increased p53 expression			
O=C(O)c1ccccc1-c1ccccc1C(=O)Nc1ccc2c(c1)[nH]c(=O)c1ccccc12 [#12]	increase p53 target gene expression	slight or no significant effect		induce p73 protein expression	
Cc1c2ccccc2c(CSC(=N)N)c2ccccc12.Cl [#15]	more modest	increased p53 expression; also recorded: significantly increased p53 protein levels			
CC(C)=CCNc1ncnc2c1c(C#N)cn2C1OC(CO)C(O)C1O (stereo not shown) [#16]	increase p53 target gene expression	slight or no significant effect		induce p73 protein expression	
CN(C)CCCn1c2ccccc2c2cnccc21 [#17]	increase p53 target gene expression	slight or no significant effect; also recorded: modestly induced p53 levels	increasing expression of the p53 target genes DR5 and p21; also recorded: strongly induce p53 target gene expression	did not increase p73 expression	toxicity to mice [5]: toxic to mice; sub-G1 peak (apoptosis) (HCT116/p53^−/− cells; HCT116/p53^−/−, #17 200 μM, #23 10 μM): induced a sub-G1 peak characteristic of apoptosis; S-phase population on apoptosis induction (HCT116/p53^−/− cells; p53-null HCT116 cells, compared with wild-type p53-expressing HCT116): without suppressing the S-phase population; p53 transcriptional activity (reporter assay response) [6]: highest; also recorded: stronger responses in the reporter assays; DR5 expression ([3]; HCT116/p53^−/− cells): highest; γH2AX (γH2AX): not; sub-G1 peak (apoptosis) (HCT116/p53^+/+ cells): induced a sub-G1 peak characteristic of apoptosis; anti-tumor effect on established xenograft [7]: no apparent in vivo anti-tumor effect; DR5 levels ([1]; HCT116/p53^+/+ cells): highest; p53 transcriptional activity [8]: highest
O=c1[nH]c(SCc2ccccc2[N+](=O)[O-])nc2nc[nH]c12 [#22]			increase DR5 and p21 expression		
C[C@]12CC[C@H](O)C[C@H]1CC[C@@H]1[C@@H]2CC[C@]2(C)[C@@H](C3=CC(=O)OC3)[C@@H](O)C[C@]12O [#32]			increase DR5 and p21 expression		
CC[C@@]1(O)C(=O)OCc2c1cc1n(c2=O)Cc2cc3c(NC(=O)CN)cccc3nc2-1.Cl [#33]	increased expression of DR5 and p21 proteins	increase p53 expression; also recorded: significantly increased p53 protein levels			
COc1cccc2c1C(=O)c1c(O)c3c(c(O)c1C2=O)C[C@@](O)(C(=O)CO)C[C@@H]3O[C@H]1C[C@H](N)[C@H](O)[C@H](C)O1 [adriamycin, doxorubicin, reference compound]				only increased p73 slightly	DR5 expression ([3]; HCT116/p53^−/− cells): no obvious effect; p21 expression ([3]; HCT116/p53^−/− cells): little effect
